# In PubChem BioAssay (NCI):
# Values joined by “and” are separate entries in the source; they are usually repeats but may differ in a detail not shown here. Identical values can stand only once.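 Values below derive from 48-hour exposures of cells grown in 96-well plates, with endpoints linearly interpolated between the two concentrations bracketing the appropriate inhibition level. The concentration for 50% growth inhibition is given as GI50. TGI is the concentration that stops growth completely.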
# Tests used:
# Assay in all cases: DTP human tumour cell line panel, 48 h
# [1] = test system: KM20L2 colon
# [2] = test system: DMS 273 small cell lung
# [3] = test system: XF 498 CNS
# [4] = test system: DMS 114 small cell lung
# [5] = test system: M19-MEL melanoma
# [6] = test system: DLD-1 colon
# [7] = test system: RXF-631 renal
# [8] = test system: SNB-78 CNS
# [9] = test system: HOP-18 NSCLC
Structure (SMILES),TGI [1],TGI [2] [µM],TGI [3] [µM],TGI [4],TGI [5] [µM],TGI [6] [µM],TGI [7] [µM],TGI [8] [µM],TGI [9] [µM],GI50 [3] [nM],GI50 [9]
CC[n+]1c(/C=C/c2cc(C(=O)OC)n3c2sc2ccccc23)sc2ccccc21,35.1 µM,38.2,29.3,52.9 µM,35.5,–,–,–,–,–,–
COc1cc(C(C)c2cc3c(cc2OCCCCCOc2cc4c(cc2C(C)c2cc(OC)c(OC)c(OC)c2)OCO4)OCO3)cc(OC)c1OC (centres undefined),> 100 µM,> 100,–,–,> 100,> 100,–,–,–,–,–
C=Cc1c(-c2ccccc2)cnc2[nH]c3ccccc3c12,–,> 50,> 50,> 50 µM,> 50,> 50,–,–,–,–,–
O=C(CC(=O)n1nc(-c2ccccc2)c(N=Nc2ccc([N+](=O)[O-])cc2)c1-c1ccccc1)Nc1ccc(Cl)cc1,24.9 µM,> 100,59.1,48.8 µM,> 100,> 100,> 100,> 100,> 100,–,–
Cc1nsc2cc(Cl)n(C)c(=O)c12,> 100 µM,> 100,> 100,> 100 µM,> 100,> 100,> 100,> 100,–,–,–
COc1cc(CNc2ccc(C)cc2)cc(OC)c1OC,0.447 µM and 0.939 µM,–,> 100,0.981 µM and 3.08 µM,> 100,> 100,–,> 100,> 100,1980,17.8 µM and > 60.8 µM
CC(=O)NC1=C(NCCO)C(=O)c2ccccc2C1=O,> 50 µM,> 50,> 50,–,18.6,> 50,–,> 50,–,–,–
O=C(O)C(Cc1ccc(O)cc1)N=Cc1nc(-c2ccccc2)oc1O (centres undefined),> 100 µM,> 100,> 100,> 100 µM,–,> 100,–,> 100,> 100,–,–
Nc1ccc(C(=O)NN2C(=O)C(Cl)C2c2ccc(O)cc2)cc1 (centres undefined),41.9 µM,35.1,27.8,25.7 µM,38.8,33.4,–,44.6,–,–,–
O=C1C[C@@H]2[C@@H](C=CC23CCCC3)N1O,> 100 µM,> 100,–,> 100 µM,> 100,> 100,–,> 100,> 100,–,–
COc1cc(Br)c(/C=N/N=C(\N)NO)cc1OC,47.2 µM,> 100,69.6,33.6 µM,76.2,> 100,> 100,> 100,> 100,–,–
COc1cc2c(c(OC)c1OC)[C@@H]1CCCCC[C@@H]1CCC2=O,> 100 µM,> 100,> 100,> 57.1 µM,> 100,> 61,> 100,–,> 100,–,–
